The source of these data is ChEMBL document CHEMBL4483862, “Open-source discovery of chemical leads for next-generation chemoprotective antimalarials” (2018).

As a reminder, the IC50 is the concentration that gives 50% inhibition. For orientation: IC90 means the concentration needed for an effect of 90%.

For this test, the system named is Plasmodium berghei. Nature of the test: Luciferase/luciferin-expressing antifolate-resistant parasites were used to infect a culture of HepG2 cells that were pre-incubated with compounds. Infected hepatocytes emit light due to the luciferase reaction. Assay results are presented as the percent inhibition of light emission compared to control. […]. It counts as functional. Particulars: sporozoite; for IC90: read-out: LUCIFERASE INFECTION ASSAY - IC90.

[1] abbreviates: read-out: LUCIFERASE INFECTION ASSAY - IC50.

Consider `COc1ccc(CC(N)c2csc(NC(=O)Nc3cccc(C(F)(F)F)c3)n2)cc1` (centres undefined), for which the IC90 was over 7.56 µM. Also, the IC50 (PBLUC_HILL_SLOPE 3.34, PBLUC_R_SQUARED 0.752, read-out: LUCIFERASE INFECTION ASSAY - IC50) came to 5.46 µM.
For `CCN(Cc1ccccc1)S(=O)(=O)c1cc(C(=O)OCc2ccccc2Cl)ccc1OC`, the IC90 is over 10 µM. Moreover, under setting [1], the concentration for half-maximal inhibition (IC50) is over 10 µM.
In the case of `N#Cc1ccc(CN2CCN(Cc3nnc(C(=O)Nc4ccc(Cl)cc4)s3)CC2)cc1`, the IC90 was over 10 µM. The half-maximal inhibitory concentration (IC50) under setting [1] was over 10 µM.
Consider `CCOc1ccc(C(=O)COC(=O)c2c3ccccc3cc3ccccc23)cc1`, for which the IC90 is over 10 µM. For the same compound, the IC50 under setting [1] was over 10 µM.
For the compound `CCOC(=O)c1c(NC(=O)C(C)N2CCN(C(=O)c3ccco3)CC2)sc2c1CCCC2` (centres undefined), the IC90 is over 10 µM. The IC50 (PBLUC_HILL_SLOPE 16.5, PBLUC_R_SQUARED 0.188, read-out: LUCIFERASE INFECTION ASSAY - IC50) came to 9.7 µM.
As for `CC(=O)c1cc2c(cc1NC(=O)c1ccc(Cn3cccn3)cc1)OCO2`, the IC90 is over 10 µM. Under setting [1], the half-inhibitory concentration (IC50) was over 10 µM.
Take `COc1cc(-c2nccc3n[nH]c(C4CC4)c23)cc(OC)c1OC`: the concentration for an effect of 90% (IC90) was over 10 µM. For the same compound, where the note is “HEPG2TOX_HILL_SLOPE 1.34, HEPG2TOX_R_SQUARED 0.994, read-out: LUCIFERASE INFECTION ASSAY - IC50”, the IC50 was over 10 µM.
With `CS(=O)(=O)Nc1cccc(-c2cn3c(-c4ccc(CO)cc4)cnc3cn2)c1`, the IC90 was found to be 8.14 µM. Besides, for the setting “PBLUC_HILL_SLOPE 16.4, PBLUC_R_SQUARED 0.351, read-out: LUCIFERASE INFECTION ASSAY - IC50”, the IC50 turned out to be 7.12 µM.
Turning to `C=CCc1cc(C(=O)Nc2ccc3oc(C)nc3c2)cc(OC)c1OC`, the concentration for an effect of 90% (IC90) was over 10 µM. Also, the IC50 under setting [1] turned out to be 4.31 µM.
On to `CN(C)c1ccc(-c2cc3cnc(Nc4cccc(Oc5ccccc5)c4)cc3n2C)cc1`, for which the IC90 was 6.91 µM. Besides, under “FFLUC_HILL_SLOPE 1.74, FFLUC_R_SQUARED 0.698, HEPG2TOX_HILL_SLOPE 44.7, HEPG2TOX_R_SQUARED 0.888, PBLUC_HILL_SLOPE 2.41, PBLUC_R_SQUARED 0.586, read-out: LUCIFERASE INFECTION ASSAY - IC50”, the IC50 worked out at 2.77 µM.
For `Cc1c(-c2ccccc2)nc2ccccc2c1C(=O)Nc1ccc2c(c1)OCCO2`, the IC90 came to 6.7 µM. In addition, the IC50 (FFLUC_HILL_SLOPE 1.33, FFLUC_R_SQUARED 0.515, PBLUC_HILL_SLOPE 1.27, PBLUC_R_SQUARED 0.667, read-out: LUCIFERASE INFECTION ASSAY - IC50) came to 1.19 µM.
On to `CNC(=O)c1ccc(C)c(C)c1`, for which the IC90 was over 10 µM. Also, the IC50 under setting [1] was over 10 µM.
As to `O=C1CCC(c2ccccc2)C(=O)/C1=N\Nc1ccc(Cl)cc1` (centres undefined), the IC90 is over 10.1 µM. Moreover, the IC50 under setting [1] was over 10.1 µM.
Turning to `Cc1ccc2nc(NC(=O)c3cc(F)ccc3C)c(C(=O)NCC(C)C)n2c1`, the IC90 was determined as 3.84 µM. In addition, the IC50 (HEPG2TOX_HILL_SLOPE 2.69, HEPG2TOX_R_SQUARED 0.883, PBLUC_HILL_SLOPE 9.75, PBLUC_R_SQUARED 0.136, read-out: LUCIFERASE INFECTION ASSAY - IC50) amounted to 3.07 µM.
For `CC(C)Nc1nc(NCC2CCCCC2)c2sccc2n1`, the IC90 is over 10.8 µM. For the same compound, for the setting “FFLUC_HILL_SLOPE 8.35, FFLUC_R_SQUARED 0.136, PBLUC_HILL_SLOPE 0.461, PBLUC_R_SQUARED 0.456, read-out: LUCIFERASE INFECTION ASSAY - IC50”, the IC50 turned out to be 1.8 µM.
For `CC(=O)c1c(C)[nH]c(C(=O)Nc2nc(-c3ccc4c(c3)CCC4)cs2)c1C`, the IC90 was over 10 µM. In addition, the IC50 under setting [1] is 6.23 µM.
Regarding `Cc1c(O)ccc2c(CNc3ccc(C(C)(C)C)cc3)cc(=O)oc12`, the IC90 was over 10 µM. Also, the 50% inhibitory concentration (IC50) (HEPG2TOX_HILL_SLOPE 0.191, HEPG2TOX_R_SQUARED 0.186, PBLUC_HILL_SLOPE 2.86, PBLUC_R_SQUARED 0.292, read-out: LUCIFERASE INFECTION ASSAY - IC50) is 4.84 µM.
`CC(C)CC(N)c1csc(NC(=O)Nc2ccc(F)c(Cl)c2)n1` (centres undefined): the IC90 was over 9.25 µM. The IC50 under setting [1] is over 9.25 µM.
For the compound `Nc1ncc(-c2cccc(O)c2)cc1-c1cccc(C(F)(F)F)c1`, the IC90 turned out to be 3.76 µM. The IC50 (HEPG2TOX_HILL_SLOPE 7.78, HEPG2TOX_R_SQUARED 0.72, PBLUC_HILL_SLOPE 13.3, PBLUC_R_SQUARED 0.696, read-out: LUCIFERASE INFECTION ASSAY - IC50) was found to be 3.18 µM.
As for `O=S(=O)(c1ccccc1)N1CN(c2ccc(N3CCOCC3)cc2)c2nc3ccccc3nc21`, the IC90 is over 10 µM. For the same compound, under setting [1], the IC50 is over 10 µM.
With `CC(C)S(=O)(=O)c1csc(NC(=O)Nc2ccc(Cl)cc2)c1`, the concentration for an effect of 90% (IC90) was 3.33 µM. For the same compound, the IC50 (PBLUC_HILL_SLOPE 17.2, PBLUC_R_SQUARED 0.385, read-out: LUCIFERASE INFECTION ASSAY - IC50) stood at 2.93 µM.
As to `Fc1ccc(Nc2nccc3nc(-c4ccccc4Cl)[nH]c23)cc1Cl`, the IC90 was over 10 µM. Besides, for the setting “HEPG2TOX_HILL_SLOPE 6.23, HEPG2TOX_R_SQUARED 0.841, PBLUC_HILL_SLOPE 1.89, PBLUC_R_SQUARED 0.243, read-out: LUCIFERASE INFECTION ASSAY - IC50”, the IC50 is 5.64 µM.
On to `FC(F)(F)c1cccc(-c2nc3ccnc(Nc4ccccc4)c3[nH]2)c1`, for which the concentration for an effect of 90% (IC90) was over 10 µM. Moreover, under setting [1], the IC50 amounted to 3.2 µM.
The like results for `CCOC(=O)c1[nH]c2c(c1C)C(=O)/C(=C/c1ccc(Cl)cc1)CC2` were, in that order, over 10 µM and over 10 µM.
`Cc1nc(-c2ccc3c(c2)CC(=O)N3C)cs1`: the IC90 is over 10 µM. Also, the IC50 under setting [1] was over 10 µM.
For `CCn1c2ccccc2c2cc(NC(=O)c3ccncc3)ccc21`, the IC90 amounted to 3.82 µM. In addition, the IC50 (HEPG2TOX_HILL_SLOPE 3.45, HEPG2TOX_R_SQUARED 0.806, PBLUC_HILL_SLOPE 11.3, PBLUC_R_SQUARED 0.493, read-out: LUCIFERASE INFECTION ASSAY - IC50) was determined as 3.14 µM.
For the compound `Clc1ccccc1C(CNc1ncnc2sccc12)N1CCCC1` (centres undefined), the 90% effect concentration (IC90) is over 10 µM. Also, the IC50 (HEPG2TOX_HILL_SLOPE 0.371, HEPG2TOX_R_SQUARED 0.706, PBLUC_HILL_SLOPE 3.78, PBLUC_R_SQUARED 0.473, read-out: LUCIFERASE INFECTION ASSAY - IC50) amounted to 7.08 µM.
On to `O=C(c1ccco1)N(Cc1nccs1)c1ccc(-c2ccccc2)cc1`, for which the IC90 was over 9.16 µM. Moreover, under setting [1], the IC50 was over 9.16 µM.
Take `c1ccc(-c2cc3c(N4CCC(c5ncc[nH]5)CC4)ncnc3s2)cc1`: the IC90 was 3.94 µM. Further, under “PBLUC_HILL_SLOPE 15.6, PBLUC_R_SQUARED 0.358, read-out: LUCIFERASE INFECTION ASSAY - IC50”, the IC50 came to 3.43 µM.
Turning to `Cc1cc(NC(=O)c2ccc(C)c(C)c2)n(-c2nc3ccccc3[nH]2)n1`, the IC90 is over 9.55 µM. Further, the IC50 (PBLUC_HILL_SLOPE 14, PBLUC_R_SQUARED 0.327, read-out: LUCIFERASE INFECTION ASSAY - IC50) came out at 8.17 µM.
As for `O=S(=O)(Nc1nn(Cc2ccc(C(F)(F)F)cc2)c2ccccc12)c1cccc2nsnc12`, the IC90 is over 6.74 µM. For the same compound, the IC50 under setting [1] was over 6.74 µM.
For `Fc1cccc(Cl)c1CSc1nnc(-c2cc(C(F)(F)F)cc(C(F)(F)F)c2)[nH]1`, the IC90 is over 7.24 µM. For the same compound, the IC50 (PBLUC_HILL_SLOPE 6.81, PBLUC_R_SQUARED 0.556, read-out: LUCIFERASE INFECTION ASSAY - IC50) was over 7.24 µM.
In the case of `O=S(=O)(c1ccc2ccccc2c1)N1CCN(c2ncc(C(F)(F)F)cc2Cl)CC1`, the IC90 is over 7.24 µM. The IC50 under setting [1] was over 7.24 µM.
As to `CC(C)c1ccc(CN2CCN(C(=O)CNC(=O)c3ccc(Br)o3)CC2)cc1`, the IC90 was over 10 µM. Besides, the IC50 (PBLUC_HILL_SLOPE 3.89, PBLUC_R_SQUARED 0.276, read-out: LUCIFERASE INFECTION ASSAY - IC50) is 9.05 µM.
For `Clc1c(-c2c(-c3ccccc3)[nH]c3ccccc23)nc2ccccc2c1-c1ccccc1`, the IC90 was 8.61 µM. Where the note is “FFLUC_HILL_SLOPE 0.689, FFLUC_R_SQUARED 0.515, HEPG2TOX_HILL_SLOPE 2.63, HEPG2TOX_R_SQUARED 0.531, PBLUC_HILL_SLOPE 2.99, PBLUC_R_SQUARED 0.588, read-out: LUCIFERASE INFECTION ASSAY - IC50”, the IC50 came to 4.13 µM.
`CCOC(=O)c1[nH]c(CN2CCN(c3ccccc3)CC2)c(C(=O)OCC)c1C`: the concentration for an effect of 90% (IC90) is over 10 µM. The IC50 (PBLUC_HILL_SLOPE 7.85, PBLUC_R_SQUARED 0.611, read-out: LUCIFERASE INFECTION ASSAY - IC50) amounted to 8.25 µM.
For the compound `CC(C)CN(C(=O)COC(=O)/C=C/c1nc2ccccc2s1)c1c(N)n(Cc2ccccc2)c(=O)[nH]c1=O`, the IC90 came out at 3.98 µM. Further, the IC50 under setting [1] was 3.46 µM.
As to `CC(c1cccc(NC(=O)c2ccccc2)c1)N(C)c1ccc(C#N)cn1` (centres undefined), the concentration for an effect of 90% (IC90) is over 10 µM. Besides, the IC50 (PBLUC_HILL_SLOPE 1.47, PBLUC_R_SQUARED 0.583, read-out: LUCIFERASE INFECTION ASSAY - IC50) is 3.04 µM.
Consider `O=C(COC(=O)CCC1CCCC1)Nc1ncc(C(F)(F)F)cc1Cl`, for which the IC90 is over 10 µM. Moreover, under setting [1], the IC50 was over 10 µM.
For `Cc1cc(C(=O)OCc2c(Cl)cccc2Cl)c(C)o1`, the IC90 is over 10 µM. For the same compound, the IC50 under setting [1] is over 10 µM.
As for `O=C(CNc1ccccc1-c1ccccc1)Nc1cc(Cl)ccc1F`, the IC90 was over 10 µM. The IC50 under setting [1] was over 10 µM.
In the case of `COc1ccc(CCn2c(C)cc(C(=O)COC(=O)c3[nH]nc4ccccc34)c2C)cc1`, the IC90 is over 10 µM. Besides, the IC50 under setting [1] is over 10 µM.
